From US20230310661A1, “OPHTHALMIC DYE” (Vitreq B.V., priority 2020, published 2023)
Like-named read-outs stand apart in the source and are kept apart here.

Legend:
ARPE19 cells = assay: Staining of dead cells and/or living cells: dye content in ARPE19 cells by spectrophotometry; type: cell-based, human; settings: 15 minutes staining; for Adead (maximum absorbance for dead cells): ARPE19 cells fixed with 70% ethanol 5 minutes; for Aliving (maximum absorbance for living cells): living ARPE19 cells
ARPE-19 cells = assay: Toxicity: survival of cells after exposure to dyes; type: cell-based; settings: for Survival of ARPE-19 cells: 0.1% in PBS for 15 minutes at 37° C.
Procedure: A preferred dye, being either a compound according to the invention or an additional dye as defined above, has a good staining ability for dead cells, a minimal cellular toxicity in the dark, and a minimal cellular toxicity in the strong illumination necessary for surgery.
According to a preferred definition, a low toxicity means that at least 60%, 65%, 70%, 75%, 80%, 85%, 90% or 95% cell viability is retained after incubation in PBS for 15 minutes at 37° C. and 5% CO2, as determined using the methodology of Example 6.

[1] = Staining ability on PVDF filter as ILM model; settings: for Mean intensity of the grey values of stained filter: 30 s contact, scale 255 is white and 0 is black
From the text: Correlation between staining of the filter and observed staining of the ILM in patients (data from (Rodrigues, Penha et al. 2010)) show a good correlation (see FIG. 1). A 96-well filter (MSBVN1210 MultiScreen BV Filter Plate, Merck-Millipore, Darmstadt, Germany) was used as ILM model. The filter material is hydrophilic polyvinylidene difluoride (PVDF). A Collagen Cell Carrier membrane (CCC) (Viscofan, Weinheim, Germany) was used as model for the ERM. Punches of the membrane (5 mm diameter) were fixed to the filter with a hypodermic needle and soaked in PBS for 30 minutes. The PBS was removed by vacuum filtration, and 50 μL of the dye solution was pipetted into the filter well. After 30 s, the dye was removed by vacuum filtration, and membrane and filter were washed three times with PBS. The membrane was removed and put into a 96-well plate for spectrum recording, using a Tecan Spark 20M (Tecan Group Ltd., Männedorf, Switzerland) plate reader. The filter staining of the compounds (6) and (8) according to the invention are shown in FIG. 2 in comparison to that of BBG. […] The intensity of the grey values was measured. For BBG the mean intensity was 201, for compound (6) it was 175, for compound (8) it was 197. On the scale used, 255 is white and 0 is black.

[2] = dye 0.1% w/v in PBS, <0.07 = does not stain
[3] = concentration of the dye 0.025%

Molecule	Adead (maximum absorbance for dead cells) (ARPE19 cells; dye 0.1% w/v in PBS)	Aliving (maximum absorbance for living cells) (ARPE19 cells; [2])	also measured
CC1=CC(=[N+](C)Cc2cccc(S(=O)(=O)[O-])c2)C=CC1=C(c1ccc(Nc2ccc(OC(C)C)cc2)cc1)c1ccc(N(C)Cc2cccc(S(=O)(=O)O)c2)cc1C [(1)]	0.3481	0.0283	–
CC1=CC(=[N+](C)Cc2cccc(S(=O)(=O)[O-])c2)C=CC1=C(c1ccc(Nc2ccc(OCc3ccccc3)cc2)cc1)c1ccc(N(C)Cc2cccc(S(=O)(=O)O)c2)cc1C [(2)]	0.2454	0.0253	–
CCN(Cc1cccc(S(=O)(=O)O)c1)c1ccc(C(=C2C=CC(=[N+](CC)Cc3cccc(S(=O)(=O)[O-])c3)C=C2C)c2ccc(Nc3ccc(OC(C)C)cc3)cc2)c(C)c1 [(3)]	0.6387	0.0440	–
CCCOc1ccc(Nc2ccc(C(=C3C=CC(=[N+](CC)Cc4cccc(S(=O)(=O)[O-])c4)C=C3C)c3ccc(N(CC)Cc4cccc(S(=O)(=O)O)c4)cc3C)cc2)cc1 [(4)]	0.8084	0.0485	–
CCN(Cc1cccc(S(=O)(=O)O)c1)c1ccc(C(=C2C=CC(=[N+](CC)Cc3cccc(S(=O)(=O)[O-])c3)C=C2C)c2ccc(Nc3ccc(OCc4ccccc4)cc3)cc2)c(C)c1 [(5)]	0.6734	0.0327	Survival of ARPE-19 cells (ARPE-19 cells): 81%; Survival (ARPE-19 cells; dye concentration 0.025%): 81%
CCN(Cc1cccc(S(=O)(=O)O)c1)c1ccc(C(=C2C=CC(=[N+](CC)Cc3cccc(S(=O)(=O)[O-])c3)C=C2C)c2ccc(Nc3ccc(Oc4ccccc4)cc3)cc2)c(C)c1 [(7)]	–	–	Survival of ARPE-19 cells (ARPE-19 cells): 81%; Survival (ARPE-19 cells; dye concentration 0.025%): 81%; Adead (maximum absorbance for dead cells) (ARPE19 cells; [3]): 0.1976; Aliving (maximum absorbance for living cells) (ARPE19 cells; [3]): 0.0216
CCN(Cc1cccc(S(=O)(=O)O)c1)c1ccc(C(=C2C=CC(=[N+](CC)Cc3cccc(S(=O)(=O)[O-])c3)C=C2C)c2ccc(Nc3ccc(Nc4ccccc4)cc3)cc2)c(C)c1 [(8)]	0.8411	0.0629	Survival of ARPE-19 cells (ARPE-19 cells): 79%; Survival (ARPE-19 cells; dye concentration 0.025%): 79%; Ability to stain the ILM (comparative statement) ([1]; PVDF filter as model for the ILM): increased ability to stain the ILM compared to compound (6); Mean intensity of the grey values of stained filter ([1]; dye 0.005%): 197; Filter staining in comparison to BBG and compound (6) ([1]; dye at 0.005%, comparators at 0.025%, FIG. 2): even stronger staining
CCCCN(c1ccc(OCC)cc1)c1ccc(C(=C2C=CC(=[N+](CC)Cc3cccc(S(=O)(=O)[O-])c3)C=C2C)c2ccc(N(CC)Cc3cccc(S(=O)(=O)O)c3)cc2C)cc1 [BBBG]	0.7941	0.1491	Survival (ARPE-19 cells; dye concentration 0.005%): 67%
CCOc1ccc(Nc2ccc(/C(=C3C=C/C(=[N+](/CC)Cc4cccc(S(=O)(=O)[O-])c4)C=C/3C)c3ccc(N(CC)Cc4cccc(S(=O)(=O)[O-])c4)cc3C)cc2)cc1.[Na+] [BBG, Brilliant Blue G]	0.5651	0.0328	Survival (ARPE-19 cells): 99%; Mean intensity of the grey values of stained filter ([1]; dye 0.025%): 201
CCN(CC)c1ccc(C(=C2C=CC(=[N+](CC)CC)C=C2)c2ccccc2)cc1 [Brilliant Green]	0.0568	0.1088	–
O=S1(=O)OC(c2cc(Br)c(O)c(Br)c2)(c2cc(Br)c(O)c(Br)c2)c2ccccc21 [Bromophenol Blue]	0.0357	0.0059	–
CN(C)c1ccc(C(=C2C=CC(=[N+](C)C)C=C2)c2ccc(N(C)C)cc2)cc1 [Crystal Violet]	0.4365	–	–
CCOc1ccc(N(CC)c2ccc(C(=C3C=CC(=[N+](CC)Cc4cccc(S(=O)(=O)[O-])c4)C=C3C)c3ccc(N(CC)Cc4cccc(S(=O)(=O)O)c4)cc3C)cc2)cc1 [EBBG]	0.9066	0.0724	Survival (ARPE-19 cells; dye concentration 0.025%): 93%
O=C1OC2(c3ccccc31)c1cc(Br)c(O)c(Br)c1Oc1c2cc(Br)c(O)c1Br [Eosin]	0.2358	0.0362	–
CC1(C)C(/C=C/C=C/C=C/C=C2\N(CCCCS(=O)(=O)O)c3ccc4ccccc4c3C2(C)C)=[N+](CCCCS(=O)(=O)[O-])c2ccc3ccccc3c21 [ICG, indocyanine green]	1.1751	0.0703	–
CCN(Cc1cccc(S(=O)(=O)O)c1)c1ccc(C(=C2C=CC(=[N+](CC)Cc3cccc(S(=O)(=O)O)c3)C=C2)c2ccc(S(=O)(=O)O)cc2)cc1.[Na+].[Na+] [Light Green SF]	0.0080	0.0065	–
CCOc1ccc(N(C)c2ccc(C(=C3C=CC(=[N+](CC)Cc4cccc(S(=O)(=O)[O-])c4)C=C3C)c3ccc(N(CC)Cc4cccc(S(=O)(=O)O)c4)cc3C)cc2)cc1 [MBBG]	0.6876	0.0355	–
CN(C)c1ccc(C(=C2C=CC(=[N+](C)C)C=C2)c2ccccc2)cc1 [Malachite Green]	0.0068	0.0058	–
CN(C)c1ccc(C(=C2C=CC(=[N+](C)C)C=C2)c2ccc([N+](C)(C)C)cc2)cc1.[Cl-].[Cl-] [Methyl Green]	0.0750	0.0489	–
CCCN(c1ccc(OCC)cc1)c1ccc(C(=C2C=CC(=[N+](CC)Cc3cccc(S(=O)(=O)[O-])c3)C=C2C)c2ccc(N(CC)Cc3cccc(S(=O)(=O)O)c3)cc2C)cc1 [PBBG]	0.7369	0.1331	Survival (ARPE-19 cells; dye concentration 0.005%): 66%
Cc1cc(-c2ccc(/N=N/c3c(S(=O)(=O)O)cc4cc(S(=O)(=O)O)cc(N)c4c3O)c(C)c2)ccc1/N=N/c1c(S(=O)(=O)O)cc2cc(S(=O)(=O)O)cc(N)c2c1O [Trypan Blue]	0.0847	0.0135	–
Acid Violet	0.2077	0.0184	–
Aniline Blue	0.0057	0.0080	–
Methyl Violet	0.8900	–	–
Patent Blue 1	0.0113	0.0155	–
